The values below come from ChEMBL document CHEMBL1817597, “Antifungal thiopeptide cyclothiazomycin B1 exhibits growth inhibition accompanying morphological changes via binding to fungal cell wall chitin” (Bioorg Med Chem, 2011).

Test [1] has as its system Mucor mucedo. As to the kind of experiment: Antimicrobial activity against Mucor mucedo IFO 7684 at 100 uM after 24 hrs by broth microdilution method. Format: functional, organism-based. In general terms: Broth dilution looks for growth in wells or tubes with falling amounts of substance.
Test [2] deals with Mucor mucedo. The test can be described thus: Induction of morphological changes in Mucor mucedo IFO 7684 assessed as thickening of hyphae at 100 uM after 24 hrs by microscopic analysis. Format: functional, organism-based.
For test [3], the system named is Mucor mucedo. The test can be described thus: Inhibition of RNA synthesis in Mucor mucedo IFO 7684 assessed as [8-14C]-adenine uptake into acid-insoluble fractions at 0.77 mM after 25 mins by liquid scintillation counting. The format is functional. The settings on record: IFO 7684, 25 min.
Test [4] concerns Mucor mucedo. As to the kind of experiment: Inhibition of DNA synthesis in Mucor mucedo IFO 7684 assessed as [8-14C]-adenine uptake into acid-insoluble fractions at 0.77 mM after 25 mins by liquid scintillation counting. Conditions: IFO 7684, 25 min. The format is functional.
The test system of test [5] is Mucor mucedo. As to the kind of experiment: Antifungal activity against Mucor mucedo IFO 7684 under hyperosmotic shock at 0.081 uM after 2 days by paper disc method. Format: functional. Conditions: IFO 7684, 48 h, read-out: DIZ.
Test [6] concerns Fusarium oxysporum. As to the kind of experiment: Antifungal activity against Fusarium oxysporum NBRC 5942 under hyperosmotic shock at 0.081 uM after 2 days by paper disc method. The format is functional. Conditions: NBRC 5942, 48 h, read-out: DIZ.
The subject of test [7] is Mucor mucedo. As to the kind of experiment: Antifungal activity against Mucor mucedo IFO 7684 under hypoosmotic shock assessed as increase of fragility of organism at 0.081 uM after 24 hrs measured after distilled water treatment for 10 mins by microscopic analysis. The format is functional, organism-based.
Test [8] relates to Fusarium oxysporum. The test can be described thus: Antifungal activity against Fusarium oxysporum NBRC 5942 under hypoosmotic shock assessed as increase of fragility of organism at 0.081 uM after 24 hrs measured after distilled water treatment for 10 mins by microscopic analysis. Format: functional, organism-based.
Test [9] has as its system Mucor mucedo. The test can be described thus: Inhibition of chitin synthase in Mucor mucedo IFO 7684 assessed as incorporation of GlcNAc from [14C]-UDP-GlcNAc into acid-insoluble fractions at 4 ug/ml after 55 mins by liquid scintillation counting.
Test [10] concerns Mucor mucedo. As to the kind of experiment: Effect on cell wall re-generation in Mucor mucedo IFO 7684 spheroplasts under hyperosmotic condition at 0.081 uM up to 24 hrs by microscopic analysis. The format is functional.

The source made the active and inactive calls. The calls are words filed in the database; no cut-off is given here.

`CCCC(=O)Nc1ncnc2c1ncn2[C@@H]1O[C@@H]2COP(=O)(O)O[C@H]2[C@H]1OC(=O)CCC`: the result in test [1] and in test [2] was inactive.

For orientation: inhibition means the change of the read-out against control, counted positive when it falls. For `O=c1[nH]cc(F)c(=O)[nH]1` [FLUOROURACIL], the results for the inhibition at 770 µM in test [3] and in test [4] were 75% and 61%, respectively.

For the compound `C[C@@H]([C@H](N)C(=O)N[C@H](C(=O)O)[C@H]1O[C@@H](n2ccc(=O)[nH]c2=O)[C@H](O)[C@@H]1O)[C@H](O)c1ccc(O)cn1` [NIKKOMYCIN], the zone of inhibition at 0.081 µM in test [5] turned out to be 23 mm; in test [6] it was 0 mm. Besides, the outcome in [7] and in [8] was Active. In addition, the inhibition in test [9] was 69%. The result in test [10] was inactive.

In the case of `CNCCNS(=O)(=O)c1cccc2cnccc12`, the outcome in [1] and in test [2] was inactive.
